Assay results as given in EP1787679A1, “Use of compounds binding to the sigma receptor for the treatment of diabetes-associated pain” (LABORATORIOS DEL DR. ESTEVE, S.A., priority 2005, dated 2007).

System: STZ-induced mice
Assay: von-Frey test, mechanical allodynia in streptozotocin (STZ)-induced diabetic mice
Type: in vivo
Details: paw withdrawal response to von-Frey filaments
From the text: The pancreatic β-cell cytotoxic agent STZ is widely used to induce diabetes in rodents. The glucosamine-nitrosourea compound STZ is taken up into the insulin-producing β-cells of the islets of Langerhan's via the GLUT-2 glucose transporter. The cytotoxic effect of STZ is mediated through a decrease in NAD levels, and the formation of intracellular free radicals leading to various toxic effects, including DNA-strand breaks (Schnedl et al., 1994). […] STZ-induced diabetic rodents show common features of human diabetes that include damage to the eye, kidney, blood vessels, and nervous system. Diabetic neuropathic pain occurs mainly due to the damage in the nervous system (Sima and Sugimoto, 1999).
Method: In the present study, diabetes is induced in mice by a single i.v. injection of STZ (200 mg/kg) as reported previously (Kamei et al., 1991; Rashid and Ueda, 2002). […] The plasma glucose level in the mice is measured in blood samples obtained from tail vein. […]
Thermal hyperalgesia and mechanical allodynia is measured at different time points (1-21 days) after STZ injection. Mechanical allodynia is measured using von-Frey filaments, a well-established method known by those skilled in the art, where the paw withdrawal response is measured. Similarly, thermal hyperalgesia is measured as the latency to paw withdrawal evoked by exposing the right hind paw to a thermal stimulus. […]

SMILES: CN1CCN(CCc2ccc(Cl)c(Cl)c2)CC1 [BD-1063, 1-(3,4-dichlorophenethyl)-4-methylpiperazine]
- mechanical allodynia in the von-Frey test: significantly antagonizes mechanical allodynia
